Key:
[1] = tested on: Human immunodeficiency virus 1; experiment: Antiviral activity against HIV1 3B infected in human HOS cells expressing human CXCR4/CCR5/CD4 and HIV-LTR-luciferase; format: functional, organism-based; settings: Human immunodeficiency virus 1, 3B
[2] = Cytotoxicity against human HOS cells; format: cell-based
[3] = tested on: Human immunodeficiency virus 1; experiment: Antiviral activity against HIV1 3B infected in human HOS cells expressing human CXCR4/CCR5/CD4 and HIV-LTR-luciferase assessed as change in concentration at which 50 % efficacy is observed in presence of human serum albumin and alpha acid glycoprotein; format: functional
[4] = molecular target: C-X-C chemokine receptor type 4 (Homo sapiens, UniProt P61073); experiment: Inhibition of human CXCR4
C-X-C chemokine receptor type 4, sequence (P61073 whole entry): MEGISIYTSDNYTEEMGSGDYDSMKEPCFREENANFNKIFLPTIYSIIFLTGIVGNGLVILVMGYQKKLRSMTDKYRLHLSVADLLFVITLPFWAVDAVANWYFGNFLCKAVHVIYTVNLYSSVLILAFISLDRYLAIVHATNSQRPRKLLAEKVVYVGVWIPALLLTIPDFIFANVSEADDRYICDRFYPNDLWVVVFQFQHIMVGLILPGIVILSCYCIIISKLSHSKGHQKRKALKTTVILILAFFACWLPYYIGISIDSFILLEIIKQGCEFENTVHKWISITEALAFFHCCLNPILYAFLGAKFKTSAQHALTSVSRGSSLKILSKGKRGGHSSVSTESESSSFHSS

[5] = Half life in rat at 1 mg/kg, iv; format: ADME, organism-based; set-up: dose 1 mg/kg, route intravenous; settings: in vivo
[6] = Clearance in rat at 1 mg/kg, iv; format: ADME, organism-based; set-up: dose 1 mg/kg, route intravenous; settings: in vivo
[7] = Oral bioavailability in rat at 3 mg/kg; format: ADME, organism-based; settings: in vivo
[8] = Half life in dog at 1 mg/kg, iv; format: ADME, organism-based, Canis lupus familiaris; set-up: dose 1 mg/kg, route intravenous; settings: in vivo
[9] = Clearance in dog at 1 mg/kg, iv; format: ADME, organism-based, Canis lupus familiaris; set-up: dose 1 mg/kg, route intravenous; settings: in vivo
[10] = Oral bioavailability in dog at 3 mg/kg; format: ADME, organism-based, Canis lupus familiaris; settings: in vivo
[11] = molecular target: Voltage-gated inwardly rectifying potassium channel KCNH2 (Homo sapiens, UniProt Q12809); experiment: Binding affinity to human ERG
Voltage-gated inwardly rectifying potassium channel KCNH2, sequence (Q12809 whole entry): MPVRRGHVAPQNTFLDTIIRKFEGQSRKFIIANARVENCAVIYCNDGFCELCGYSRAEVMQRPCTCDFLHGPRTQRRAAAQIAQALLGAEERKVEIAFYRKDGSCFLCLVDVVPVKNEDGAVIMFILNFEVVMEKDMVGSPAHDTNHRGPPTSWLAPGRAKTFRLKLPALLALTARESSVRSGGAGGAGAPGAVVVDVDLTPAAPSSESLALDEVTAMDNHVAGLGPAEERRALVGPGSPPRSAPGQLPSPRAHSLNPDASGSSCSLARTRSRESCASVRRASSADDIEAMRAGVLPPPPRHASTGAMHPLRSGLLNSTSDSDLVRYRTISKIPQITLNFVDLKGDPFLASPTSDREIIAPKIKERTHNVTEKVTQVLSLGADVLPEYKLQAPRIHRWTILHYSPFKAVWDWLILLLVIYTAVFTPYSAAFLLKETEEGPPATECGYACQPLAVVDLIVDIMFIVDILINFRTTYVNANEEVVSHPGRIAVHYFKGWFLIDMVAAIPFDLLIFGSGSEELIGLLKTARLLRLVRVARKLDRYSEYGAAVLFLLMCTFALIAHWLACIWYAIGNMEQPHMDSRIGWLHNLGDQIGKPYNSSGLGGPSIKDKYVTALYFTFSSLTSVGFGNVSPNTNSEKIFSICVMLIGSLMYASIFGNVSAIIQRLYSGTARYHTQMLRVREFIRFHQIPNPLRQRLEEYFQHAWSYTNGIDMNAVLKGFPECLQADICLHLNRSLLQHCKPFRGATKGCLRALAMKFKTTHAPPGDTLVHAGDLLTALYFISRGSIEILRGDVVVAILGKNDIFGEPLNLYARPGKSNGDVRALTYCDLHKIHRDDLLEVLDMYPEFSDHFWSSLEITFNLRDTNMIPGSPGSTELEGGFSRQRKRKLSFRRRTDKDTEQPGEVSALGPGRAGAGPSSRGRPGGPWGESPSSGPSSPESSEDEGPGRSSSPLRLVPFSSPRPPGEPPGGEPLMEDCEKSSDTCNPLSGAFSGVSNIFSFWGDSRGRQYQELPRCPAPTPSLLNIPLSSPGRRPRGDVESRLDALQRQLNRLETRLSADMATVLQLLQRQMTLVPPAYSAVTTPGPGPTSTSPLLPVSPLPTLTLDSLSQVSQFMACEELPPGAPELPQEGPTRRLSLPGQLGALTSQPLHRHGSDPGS

| Structure (SMILES) | IC50 [1] | CC50 [2] | fold change (FC) [3] | other results |
| --- | --- | --- | --- | --- |
| CN(Cc1nc2ccccc2n1CC1CNC1)C1CCCc2cccnc21 (stereo not drawn) | 0.084 µM | 15 µM |  |  |
| CN1CCC(Cn2c(CN(C)C3CCCc4cccnc43)nc3ccccc32)C1 (stereo not drawn) | 0.057 µM | 15 µM |  |  |
| CN(Cc1nc2ccccc2n1CC1CCCNC1)C1CCCc2cccnc21 (stereo not drawn) | 0.051 µM | 15 µM |  |  |
| CN(Cc1nc2ccccc2n1CCC1CCCCN1)C1CCCc2cccnc21 (stereo not drawn) | 0.064 µM | 8.3 µM |  |  |
| CN1CCCCC1CCn1c(CN(C)C2CCCc3cccnc32)nc2ccccc21 (stereo not drawn) | 0.033 µM | 4.9 µM |  |  |
| CN(Cc1nc2ccccc2n1C1CCNCC1)C1CCCc2cccnc21 (stereo not drawn) | 0.099 µM | 13 µM |  |  |
| CN1CCC[C@H](Cn2c(CN(C)[C@H]3CCCc4cccnc43)nc3ccccc32)C1 | 0.006 µM | 3.6 µM | 10 |  |
| CN1CCC[C@H](Cn2c(CN(C)[C@@H]3CCCc4cccnc43)nc3ccccc32)C1 | 0.21 µM | 3.6 µM |  |  |
| CC(C)CN1CCC[C@H](Cn2c(CN(C)[C@H]3CCCc4cccnc43)nc3ccccc32)C1 | 0.0081 µM | > 2 µM | 6.2 |  |
| CN1CCC[C@@H](Cn2c(CN(C)[C@@H]3CCCc4cccnc43)nc3ccccc32)C1 | 0.5 µM | 2.8 µM |  |  |
| CN(Cc1nc2ccccc2n1C[C@H]1CCCNC1)[C@H]1CCCc2cccnc21 | 0.008 µM | 3.5 µM | 1.2 |  |
| CC(C)N1CCC[C@H](Cn2c(CN(C)[C@H]3CCCc4cccnc43)nc3ccccc32)C1 | 0.002 µM | 2.1 µM | 2 | half-life [5]: 5.8 h; clearance [6]: 8.5 mL/min/kg; bioavailability [7]: 11%; half-life [8]: 11 h; clearance [9]: 9.4 mL/min/kg; bioavailability [10]: 22%; Activity [11]: Active; IC50 [4]: 0.0045 µM |
| CN(Cc1nc2ccccc2n1C[C@H]1CCCN(CCO)C1)[C@H]1CCCc2cccnc21 | 0.012 µM | 2.5 µM | 9.1 |  |
| CN(Cc1nc2ccccc2n1CCCN)C1CCCc2cccnc21 (stereo not drawn) |  | 9.6 µM |  | IC50 [4]: 0.047 µM |

More lines, main results first:

| IC50 [1] | Structure (SMILES) | CC50 [2] | fold change (FC) [3] | other results |
| --- | --- | --- | --- | --- |
| 0.019 µM | CN1CCCC(Cn2c(CN(C)C3CCCc4cccnc43)nc3ccccc32)C1 (stereo not drawn) | 3 µM |  |  |
| 0.015 µM | CC(C)CCN1CCC[C@H](Cn2c(CN(C)[C@H]3CCCc4cccnc43)nc3ccccc32)C1 | 2.3 µM | 5.1 |  |
| 0.066 µM | CN1CC(Cn2c(CN(C)C3CCCc4cccnc43)nc3ccccc32)C1 (stereo not drawn) | 14 µM |  |  |
| 0.033 µM | CN(Cc1nc2ccccc2n1C[C@H]1CCCN(Cc2cccnc2)C1)[C@H]1CCCc2cccnc21 | 2.5 µM | 8.7 |  |
| 0.024 µM | CN(Cc1nc2ccccc2n1CC1CCNC1)C1CCCc2cccnc21 (stereo not drawn) | 7.7 µM |  |  |
| 0.095 µM | CN1CCC(n2c(CN(C)C3CCCc4cccnc43)nc3ccccc32)CC1 (stereo not drawn) | 16 µM |  | IC50 [4]: 0.076 µM |
| 0.021 µM | CN1CCC[C@@H](Cn2c(CN(C)[C@H]3CCCc4cccnc43)nc3ccccc32)C1 | 3.5 µM |  |  |

— ChEMBL document CHEMBL1156326, “Novel N-substituted benzimidazole CXCR4 antagonists as potential anti-HIV agents” (Bioorg Med Chem Lett, 2010)
